Assay [1] concerns ERK1. As to the kind of experiment: Hypromatrix Array phosphorylation, TRiPS cell extracts. It counts as cell-based, human. On the set-up: key to ERK1 phosphorylation score: 0 (negative); + to ++++ (positive); + to ++++ (positive); + to ++++ (positive); + to ++++ (positive). The settings on record: 30 minutes at 37° C., 0.5 mM DA-DKP or 1:500 dilution of HC 2626. The protocol: (§1) The mechanism of action of DA-DKP and HC 2626 (containing MR-DKP) was investigated. […] After the incubation, the cells were lysed in Cell-Lytic Mammalian Cell Extraction Reagent (Sigma).
(§2) The cell extracts were then separately incubated with duplicate Hypromatrix Arrays for 2 hours at room temperature, followed by two washes following the manufacturer's (Hypromatrix) protocol. The Hypromatrix Array is a nylon membrane blotted with antibodies to the transcription factors listed in Table 1 (custom manufactured by Hypromatrix). An antibody cocktail specific for phosphorylated-tyrosine, phosphorylated-serine and phosphorylated-threonine (Zymed) was added, incubated for 1 hour. Then, an anti-immunoglobulin antibody labeled with biotin was added. After washing the anti-immunoglobulin-biotin away, streptavidin-peroxidase was added, and the arrays given a final wash before adding a peroxidase-reactive luminescent substrate.

The subject of assay [2] is Akt ½. The description is as above. It counts as cell-based, human. To be noted: day 18 TRiPS cells + CD3/CD28 beads, 30 minutes at 37° C.; 0.5 mM DA-DKP or 1:500 dilution of HC 2626. Further details: key: 0 (negative); + to ++++ (positive); + to ++++ (positive); + to ++++ (positive); + to ++++ (positive). As for the experimental part: as §1, §2
Assay [3] relates to CBP. The assay is described as above. Type of assay: cell-based, human. Further details: key: 0 (negative); + to ++++ (positive); + to ++++ (positive); + to ++++ (positive); + to ++++ (positive). To be noted: day 18 TRiPS cells + CD3/CD28 beads, 30 minutes at 37° C.; 0.5 mM DA-DKP or 1:500 dilution of HC 2626. As for the experimental part:
as §1, §2

Assay [4] has as its system IκB-α. The assay is described as above. Further details: key: 0 (negative); + to ++++ (positive); + to ++++ (positive); + to ++++ (positive); + to ++++ (positive). Type of assay: cell-based, human. To be noted: day 18 TRiPS cells + CD3/CD28 beads, 30 minutes at 37° C.; 0.5 mM DA-DKP or 1:500 dilution of HC 2626. As for the experimental part:
as §1, §2

Assay [5] deals with Rap1. The assay is described as above. It counts as cell-based, human. Further details: key: 0 (negative); + to ++++ (positive); + to ++++ (positive); + to ++++ (positive); + to ++++ (positive). The settings on record: day 18 TRiPS cells + CD3/CD28 beads, 30 minutes at 37° C.; 0.5 mM DA-DKP or 1:500 dilution of HC 2626. The protocol: as §1, §2
The test system of assay [6] is c-jun. The assay is described as above. It counts as cell-based, human. On the set-up: key: 0 (negative); + to ++++ (positive); + to ++++ (positive); + to ++++ (positive); + to ++++ (positive). The settings on record: day 18 TRiPS cells + CD3/CD28 beads, 30 minutes at 37° C.; 0.5 mM DA-DKP or 1:500 dilution of HC 2626. The protocol: as §1, §2
The test system of assay [7] is csk. Described as above. Type of assay: cell-based, human. On the set-up: key: 0 (negative); + to ++++ (positive); + to ++++ (positive); + to ++++ (positive); + to ++++ (positive). The settings on record: day 18 TRiPS cells + CD3/CD28 beads, 30 minutes at 37° C.; 0.5 mM DA-DKP or 1:500 dilution of HC 2626. As for the experimental part:
as §1, §2

Assay [8] concerns fyn. The description is as above. Type of assay: cell-based, human. The settings on record: day 18 TRiPS cells + CD3/CD28 beads, 30 minutes at 37° C.; 0.5 mM DA-DKP or 1:500 dilution of HC 2626. Further details: key: 0 (negative); + to ++++ (positive); + to ++++ (positive); + to ++++ (positive); + to ++++ (positive). As for the experimental part:
as §1, §2

Assay [9] has as its system p38 MAPK. The description is as above. On the set-up: key: 0 (negative); + to ++++ (positive); + to ++++ (positive); + to ++++ (positive); + to ++++ (positive). Type of assay: cell-based, human. To be noted: day 18 TRiPS cells + CD3/CD28 beads, 30 minutes at 37° C.; 0.5 mM DA-DKP or 1:500 dilution of HC 2626. As for the experimental part: as §1, §2
Assay [10] deals with pI3 kinase/p85. Described as above. Type of assay: cell-based, human. Further details: key: 0 (negative); + to ++++ (positive); + to ++++ (positive); + to ++++ (positive); + to ++++ (positive). The settings on record: day 18 TRiPS cells + CD3/CD28 beads, 30 minutes at 37° C.; 0.5 mM DA-DKP or 1:500 dilution of HC 2626. As for the experimental part: as §1, §2
The test system of assay [11] is TriPS cells.
[12] abbreviates: 12 days after stimulation with anti-CD3 OKT3 antibody, 0.5 mM DA-DKP.

Where two headings read alike, the source gives them in different places.

For the substance Asp-Ala diketopiperazine [DA-DKP], the ERK1 phosphorylation score entry in assay [1] (day 18 TRiPS cells + CD3/CD28 beads) is reported as “+”. Further, in [1] (day 18 TRiPS cells, CD3/CD28 beads), the “cytokine transcriptional factor activation (ERK1/2)” value was “inhibited”. For the same substance, the “Akt ½ phosphorylation score” value in assay [2] is recorded as “+++”. Moreover, in assay [3], the CBP phosphorylation score entry is “++”. Also, the IκB-α phosphorylation score entry in assay [4] is listed as “+”. The Rap1 phosphorylation score entry in assay [5] was “++”. The c-jun phosphorylation score entry in assay [6] was “+”. Besides, in [7], the csk phosphorylation score entry is listed as “+”. For the same substance, the fyn phosphorylation score entry in [8] was “+”. Moreover, in assay [9], the “p38 MAPK phosphorylation score” value is “+++”. The “pI3 kinase/p85 phosphorylation score” value in assay [10] was “+”. In assay [11] (setting [12]), the “secretion of IL-16 from TriPS cells (FIG. 2)” value is reported as “decreased” and the “secretion of TNFα from TriPS cells (FIG. 2)” value is listed as “decreased”. The “release of pre-formed cytokines” value in assay [11] (TRiPS cells) is listed as “inhibited”. Also, the “effect on TNFα secretion from TriPS cells (FIG. 4)” value in assay [11] (early in the stimulation cycle) is recorded as “inhibitory”. For the same substance, the “effect on TNFα secretion from TriPS cells (FIG. 4)” value in assay [11] (later in the cycle (day 14)) was “stimulatory”.

Source of the values: patent publication US11369598B2, “Treatment of T-cell mediated diseases” (Ampio Pharmaceuticals, Inc., priority 2003, dated 2022).
